In paper PMC7231327 (2020):

Assays:
[1] = test system: H-DNA 1 (DNA, aptamer) GCGGGCGGTTGTATAGCGGTTTTTTCTCACACGAATTCATCTGAC; assay: competitive fluorescent lateral flow strip; conditions: for Cross-reactivity: T-DNA competes, [AMP] at IC50/[M] at IC50, AMP = 100
[2] = test system: H-DNA 1' (DNA, aptamer) GCGGGCGGTTGTATAGCGGTTTTTTCTCACACGAATTCATCTGAC; assay: competitive fluorescent lateral flow strip; conditions: T-DNA competes on T line; AMP 150 and 200 ng/L; slight signal change

## O=C(N[C@H](CO)[C@H](O)c1ccc([N+](=O)[O-])cc1)C(Cl)Cl
[1]; n = 3, RSD 4.34%
  Cross-reactivity: 6.60%

## NC[C@H]1O[C@H](O[C@H]2[C@H](O)[C@@H](O[C@H]3O[C@H](CO)[C@@H](O)[C@H](N)[C@H]3O)[C@H](N)C[C@@H]2N)[C@H](O)[C@@H](O)[C@@H]1O
[1]; n = 3, RSD 3.89%
  Cross-reactivity: 5.53%

## CC1(C)S[C@@H]2[C@H](NC(=O)[C@H](N)c3ccccc3)C(=O)N2[C@H]1C(=O)O
[1]; T-DNA (complementary strand) competes on T line, AMP 50-300 ng/L
  binding: yes
[2]
  binding: weak

## CC1(C)S[C@@H]2[C@H](NC(=O)Cc3ccccc3)C(=O)N2[C@H]1C(=O)O
[1]; n = 3, RSD 3.56%
  Cross-reactivity: 7.40%

## CN(C)[C@@H]1C(=O)C(C(N)=O)=C(O)[C@@]2(O)C(=O)C3=C(O)c4c(O)cccc4[C@@](C)(O)[C@H]3[C@H](O)[C@@H]12
[1]; n = 3, RSD 2.76%
  Cross-reactivity: 0.88%

## CN(C)[C@@H]1C(=O)C(C(N)=O)=C(O)[C@@]2(O)C(=O)C3=C(O)c4c(O)cccc4[C@@](C)(O)[C@H]3C[C@@H]12
[1]; n = 3, RSD 2.34%
  Cross-reactivity: 0.67%
